Measured values published in ChEMBL document CHEMBL1201862, “PubChem BioAssay data set” (2004).
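48-hour exposure; five concentrations; linearly interpolated endpoints. GI50 = concentration required for 50% inhibition of growth.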 Activity calls are given as the source filed them. Rule as the data show it: active = GI50 up to about 1.1 µM and inactive = higher.

Columns and labels:
Assay in all cases: growth of human tumour cells (NCI), 48 h
SF-539 = test system: SF-539
UACC-257 = test system: UACC-257
HCT-15 = test system: HCT-15
SR = test system: SR
SK-MEL-2 = test system: SK-MEL-2
HCC 2998 = test system: HCC 2998
DMS-114 = test system: DMS-114
ACHN = test system: ACHN
RPMI-8226 = test system: RPMI-8226
COLO 205 = test system: COLO 205
SF-268 = test system: SF-268
TK-10 = test system: TK-10
HL-60 = test system: HL-60
NCI-H460 = test system: NCI-H460
NCI-H226 = test system: NCI-H226
SNB-75 = test system: SNB-75
SN12C = test system: SN12C
A498 = test system: A498
MDA-N = test system: MDA-N
BT-549 = test system: BT-549

Row | SMILES | GI50 (SF-539) | GI50 (UACC-257) | GI50 (HCT-15) | GI50 (SR) | GI50 (SK-MEL-2) | GI50 (HCC 2998) | GI50 (DMS-114) | GI50 (ACHN) | GI50 (RPMI-8226) | GI50 (COLO 205) | GI50 (SF-268) | GI50 (TK-10) | GI50 (HL-60) | GI50 (NCI-H460) | GI50 (NCI-H226) | GI50 (SNB-75) | GI50 (SN12C) | GI50 (A498) | GI50 (MDA-N) | GI50 (BT-549)
1 | CC1=C2C(=O)O[C@@H](c3ccoc3)[C@]2(C)CCC1 [FRAXINELLONE] | > 100 µM (inactive) | > 100 µM (inactive) | > 100 µM | > 100 µM (inactive) | > 100 µM (inactive) | > 100 µM (inactive) | > 100 µM (inactive) | > 100 µM (inactive) | > 100 µM (inactive) | > 100 µM (inactive) | > 100 µM (inactive) | > 100 µM (inactive) | > 100 µM (inactive) | > 100 µM (inactive) | > 100 µM (inactive) | 77.1 µM (inactive) |  |  |  | 
2 | C=CCc1cc(OC)c2c(c1)C(O)CC(c1ccccc1)O2 (configuration not stated) | > 100 µM (inactive) | > 100 µM (inactive) | 96.6 µM | > 100 µM (inactive) | > 100 µM (inactive) | > 100 µM (inactive) | > 100 µM (inactive) | > 100 µM (inactive) |  | > 100 µM (inactive) | > 100 µM (inactive) | > 100 µM (inactive) | 35.6 µM (inactive) | > 100 µM (inactive) | > 100 µM (inactive) | > 100 µM (inactive) | > 100 µM (inactive) |  |  | 
3 | c1ccc(C2Nc3ccccc3C3OCCCC23)cc1 (configuration not stated) | 16.1 µM (inactive) | 30.9 µM (inactive) | 27 µM |  | 30.7 µM (inactive) | 35.8 µM (inactive) | 21.1 µM (inactive) | 11.3 µM (inactive) | 20.1 µM (inactive) | 35.4 µM (inactive) | 25.6 µM (inactive) |  | 24.7 µM (inactive) | > 10 µM (inactive) | 14.8 µM (inactive) |  | 38.5 µM (inactive) | 21.2 µM (inactive) |  | 
4 | O=S(=O)(c1ccccc1)C1(C2(S(=O)(=O)c3ccccc3)CCN=N2)CCN=N1 (configuration not stated) | > 100 µM (inactive) | > 100 µM (inactive) | > 100 µM | > 100 µM (inactive) | > 100 µM (inactive) | > 100 µM (inactive) | > 100 µM (inactive) | > 100 µM (inactive) | > 100 µM (inactive) | > 100 µM (inactive) | > 100 µM (inactive) | > 100 µM (inactive) | > 100 µM (inactive) | > 100 µM (inactive) | > 100 µM (inactive) | > 100 µM (inactive) | > 100 µM (inactive) |  |  | 
5 | N=c1nc2n(cc1F)[C@@H]1O[C@H](CO)[C@@H](O)[C@@H]1O2 | 53 µM (inactive) | > 23.6 µM (inactive) | > 90.2 µM | 0.424 µM (active) | > 100 µM (inactive) | > 56 µM (inactive) |  | 2.12 µM (inactive) | 56.9 µM (inactive) | 14 µM (inactive) | 4.22 µM (inactive) | > 75.5 µM (inactive) | 0.317 µM (active) | 0.286 µM (active) | 17.3 µM (inactive) | > 70.6 µM (inactive) | 14.4 µM (inactive) | 13.4 µM (inactive) | > 100 µM (inactive) | > 100 µM (inactive)
6 | COC(=O)c1ccc(NCc2cc(O)ccc2O)cc1O | 1.91 µM (inactive) | 15.7 µM (inactive) | 11.9 µM | 5.48 µM (inactive) | 16.4 µM (inactive) | 13.8 µM (inactive) |  | 9.68 µM (inactive) | 1.17 µM (inactive) | 16.7 µM (inactive) | 7.29 µM (inactive) | 16.7 µM (inactive) | 1.67 µM (inactive) | 14.4 µM (inactive) | 14 µM (inactive) | 3.08 µM (inactive) | 8.38 µM (inactive) | 20.7 µM (inactive) | 10.7 µM (inactive) | 3.44 µM (inactive)
